Experimental data: article PMC6973020, “Quinoline‐Conjugated Ruthenacarboranes: Toward Hybrid Drugs with a Dual Mode of Action” (Chemmedchem, 2019)

Key:
U251 human glioma = experiment: Crystal violet (CV) cell viability assay, U251; assay type: cell-based; conditions: CV assay, 72 h; read-out: IC50 U251
Text: (§1) Thus, care must be taken when comparing their biological activities with those of our previous studies, even with the same cell line, because the covalent vs. non‐covalent combination of drugs might imply different mechanisms of action in the cell.44 Here, we studied the in vitro activity of ruthenacarborane 3, i. e. free acid, and its 8‐hydroxyquinolyl (4) and 4‐{(7‐chloroquinolin‐4‐yl)oxy}butanol‐1‐yl (5) esters, against a panel of cancer cell lines (B16 mouse melanoma, A375 human skin melanoma, MCF‐7 human breast adenocarcinoma, LN229 human glioblastoma, U251 human glioma). Human fibroblast cell line MRC‐5, murine microglial cell line BV‐2 as well as peritoneal exudate cells (Mph), were chosen as models for non‐malignant cells. […] On the other side, we wanted to assess the reproducibility of the viability data, under either controlled (with BSA) or uncontrolled (without BSA) conditions, in two sets of independent assays. […] Cells were exposed to 3–5 for 72 h, after which cell viability was determined via 3‐(4,5‐dimethylthiazol‐2‐yl)‐2,5‐diphenyltetrazolium bromide (MTT) and crystal violet (CV) assays, in parallel (Table 2). Cisplatin was also tested as reference.
(§2) Preparation of drug solutions. […] Stock solution of cisplatin was prepared in DMF (10 mM) immediately before use. A stock solution of BSA in PBS was prepared at 1.28 mM concentration, and stored at 4 °C in the dark. […] Alternatively, 3 or 4 (DMSO stock solution) were added to the BSA solution in PBS, always with a 10 : 1 molar ratio of BSA to ruthenacarborane. The BSA−ruthenacarborane solutions were incubated 0.5–1 h at room temperature, then diluted with cell culture medium to the desired final concentrations. Final concentrations of 3 and 4 were the same as for the BSA‐free formulation. Final DMSO was 0.02–0.5 vol %.
Colorimetric assays for cellular viability. […] For counting the number of attached (viable) cells, cells were fixed with 4 % (w/v) paraformaldehyde for 10 min at room temperature, and subsequently stained for 15 min with […] crystal violet (CV) solution. Cells were then washed with tap water, dried in air, and the CV dye was dissolved in 33 % (w/v) acetic acid solution. For the detection of mitochondrial respiration, cells were cultivated in MTT staining solution (0.5 mg mL^−1) for approximately 1 h. The dye was then discarded, and the formed formazan (purple) was dissolved in DMSO. The absorbance was measured with an automated microplate reader at λmax 540 nm, with the reference λmax 670 nm. Untreated cells or cells treated only with BSA (control) were also measured, as reference for BSA‐free and BSA‐containing drug formulations, respectively. For determination of the role of autophagy specific inhibitors, CQ or 3‐MA, were applied at a concentration of 20 μM and 0.5 mM, respectively, and the cells were stained with CV dye. Cell viability is expressed as percentage (%) relative to control (untreated cultures).58 Experiments were run in three independent replicates. […] Non‐linear regression analyses of the obtained results was done using GraphPad Prism software to calculate IC50 values.
mouse microglial cell line BV‐2 was a kind gift from Dr. Irena Lavrnja, Institute for Biological Research
“Siniša Stanković” (University of Belgrade).

B16 mouse melanoma = experiment: Crystal violet (CV) cell viability assay, B16; assay type: cell-based; conditions: 72 h
Text: as §1, §2
(§3) Colorimetric assays for cellular viability. […] For counting the number of attached (viable) cells, cells were fixed with 4 % (w/v) paraformaldehyde for 10 min at room temperature, and subsequently stained for 15 min with […] crystal violet (CV) solution. Cells were then washed with tap water, dried in air, and the CV dye was dissolved in 33 % (w/v) acetic acid solution. For the detection of mitochondrial respiration, cells were cultivated in MTT staining solution (0.5 mg mL^−1) for approximately 1 h. The dye was then discarded, and the formed formazan (purple) was dissolved in DMSO. The absorbance was measured with an automated microplate reader at λmax 540 nm, with the reference λmax 670 nm. Untreated cells or cells treated only with BSA (control) were also measured, as reference for BSA‐free and BSA‐containing drug formulations, respectively. […] Cell viability is expressed as percentage (%) relative to control (untreated cultures).58 Experiments were run in three independent replicates. […]

MCF‐7 cells = experiment: CFSE staining, flow cytometry, MCF‐7; assay type: cell-based, human; conditions: MCF‐7, 20 μM, 72 h
Experimental: Flow cytometry. For gaining better insights into the mechanisms of action of the ruthenium complexes, MCF‐7 and LN229 cells incubated with an IC50 dose of 3 or 4, were analyzed via flow cytometry. Several staining protocols were carried out in parallel, in independent experiments: i) AnnV/PI for the detection of apoptotic cell death, ii) AO for the detection of acidic vacuoles, iii) ApoStat for checking caspase activation, iv) CFSE for detecting interference with cellular proliferation, and v) DAPI for the detection of morphological signs of apoptosis. Untreated cells or cells treated only with BSA (control) were also measured, as reference for BSA‐free and BSA‐containing drug formulations, respectively. […] Channels FL1 (green emission), FL2 (orange emission) and/or FL3 (dark red emission) were used for fluorescence detection, according to the specific staining agent. Sideward Scatter (SSC) for MCF‐7 cells treated with 4 or BSA−4 was also analyzed, with respect to the control, for detection of shifts of cell granularity. […]
Staining Protocols for Flow Cytometric Analysis. […] Finally, cells were washed in PBS, resuspended in PBS (or AnnV‐binding buffer for AnnV/PI), and analysed. […] Cells were then washed, trypsinised, dissolved in PBS and analysed by CyFlow® Space Partec using the PartecFloMax® software (Partec GmbH, Münster, Germany). […]

A375 human skin melanoma = experiment: MTT cell viability assay, A375; assay type: cell-based; conditions: 72 h
Text: as §1, §2, §3

[1] = tested on: Human fibroblast cell line MRC‐5; experiment: MTT cell viability assay, MRC‐5; assay type: cell-based; conditions: 72 h
Text: as §1
Preparation of drug solutions. […] Stock solution of cisplatin was prepared in DMF (10 mM) immediately before use. A stock solution of BSA in PBS was prepared at 1.28 mM concentration, and stored at 4 °C in the dark. […] Alternatively, 3 or 4 (DMSO stock solution) were added to the BSA solution in PBS, always with a 10 : 1 molar ratio of BSA to ruthenacarborane. […]
Colorimetric assays for cellular viability. […] The absorbance was measured with an automated microplate reader at λmax 540 nm, with the reference λmax 670 nm. Untreated cells or cells treated only with BSA (control) were also measured, as reference for BSA‐free and BSA‐containing drug formulations, respectively. […] Cell viability is expressed as percentage (%) relative to control (untreated cultures).58 Experiments were run in three independent replicates. […]

Substance	IC50 (U251 human glioma) [µM]	IC50 (B16 mouse melanoma) [µM]	cellular proliferation (CFSE staining) (MCF‐7 cells)	IC50 (A375 human skin melanoma) [µM]	IC50 [1] [µM]
closo ‐[3‐(η^6‐p‐Cymene)‐1‐(quinolin‐8‐yl‐acetate)‐3,1,2‐RuC2B9H10] [Compound 4]	45.1 ± 0.8	24.5 ± 2.1	inhibition of cellular proliferation	11.9 ± 1.2	3.9 ± 0.1
closo‐ [Compound 3, closo‐ [3‐(η^6‐p‐Cymene)‐1‐(CH2COOH)‐3,1,2‐RuC2B9H10]]	> 100	21.1 ± 2	inhibition of cellular proliferation	9.7 ± 1.1	44.2 ± 1.6
